Measured values published in publication PMC2965201 (Bioorganic & medicinal chemistry, 2010).

Legend:
Rce1p [1] = conditions: ref [8], [10]; cited from earlier work
Rce1p [2] = conditions: previously reported, ref [9], [10], [13], cited from earlier work; for Vmax: no quencher
Rce1p [3] = assay: Large-scale Rce1p proteolysis with ESI-MS and MS-MS identification of product; assay type: biochemical, S. cerevisiae; conditions: 150 μM substrate, membranes 0.3 mg/mL, 100 mM Hepes, 5 mM MgCl2, pH 7.5, 30 °C, 3–3.5 h; ESI-MS [M+2H]2+
yeast Rce1p = target: T1, yeast Rce1p (Saccharomyces cerevisiae, UniProt Q03530); assay: In vitro fluorescence-based Ca1a2X proteolysis assay; assay type: biochemical, S. cerevisiae
T1 sequence (Q03530 1-315): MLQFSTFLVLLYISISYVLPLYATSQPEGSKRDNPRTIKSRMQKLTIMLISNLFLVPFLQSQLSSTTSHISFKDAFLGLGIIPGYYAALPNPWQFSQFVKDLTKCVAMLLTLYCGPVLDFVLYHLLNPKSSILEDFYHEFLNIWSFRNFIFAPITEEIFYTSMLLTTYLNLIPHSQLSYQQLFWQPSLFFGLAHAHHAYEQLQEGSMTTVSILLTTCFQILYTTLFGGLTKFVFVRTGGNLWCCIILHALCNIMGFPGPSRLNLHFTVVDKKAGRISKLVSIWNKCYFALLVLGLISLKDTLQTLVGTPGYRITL

Row | Compound | inhibition of Rce1p (Rce1p [1]) | Vmax (Rce1p [2]) | Km (Rce1p [2]) [µM] | further results
1 | c1cnc2c(c1)ccc1cccnc12 [1,10-phenanthroline] | inhibited |  |  | 
2 | Abz-KSKTKC(Fr)VIM |  | 600 nmol/h/mg Rce1p-containing membrane protein | 4 | 
3 | [Zn] [zinc] | inhibited |  |  | 
4 | KSKTKC(Fr)VIM |  | 600 nmol/h/mg Rce1p-containing membrane protein | 4 | 
5 | Abz-KSKTKC(C5BP)K(Dnp)IM [Peptide 4] |  |  |  | identity of product of Rce1p-catalyzed proteolysis (Rce1p [3]): consistent with the expected product 8; Vmax/KM (yeast Rce1p; carbonate-washed yeast membranes, pH 7.5, 30 °C, n=2 (2), n=5 (4)): 4.8×10^−5 min/mg protein; binding affinity of 4 relative to 2 (fold higher, from KM) (yeast Rce1p; compared with 2): 3.4 fold; efficiency (Vmax/KM) of 4 relative to 2 (fold lower) (yeast Rce1p; compared with 2): approximately 18 fold; maximal rate of 4 relative to 2 (fold lower) (yeast Rce1p; compared with 2): approximately 60 fold
